Reference: PubChem BioAssay (NCI)
Where “and” joins values, the source holds several entries; their conditions need not be identical. Equal values may be shown once.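 Five concentrations, 48 hours, 96-well plates. Here, GI50 denotes the concentration required for 50% inhibition of growth. TGI: concentration producing complete growth inhibition.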

Columns and labels:
Experiment in all cases: inhibition of tumour cell growth, NCI panel, 48 h
CAKI-1 renal = system: CAKI-1 renal
HS 578T breast = system: HS 578T breast
MCF7 breast = system: MCF7 breast
MDA-MB-435 = system: MDA-MB-435
NCI-H460 lung = system: NCI-H460 lung
NCI/ADR-RES ovarian = system: NCI/ADR-RES ovarian
RXF 393 renal = system: RXF 393 renal
SF-268 CNS = system: SF-268 CNS
SF-539 CNS = system: SF-539 CNS
UACC-62 melanoma = system: UACC-62 melanoma

Structure (SMILES) | GI50 (CAKI-1 renal) [µM] | TGI (CAKI-1 renal) | GI50 (HS 578T breast) [µM] | TGI (HS 578T breast) [µM] | GI50 (MCF7 breast) [µM] | TGI (MCF7 breast) | GI50 (MDA-MB-435) [µM] | TGI (MDA-MB-435) | GI50 (NCI-H460 lung) [µM] | TGI (NCI-H460 lung) [µM] | GI50 (NCI/ADR-RES ovarian) [µM] | TGI (NCI/ADR-RES ovarian) [µM] | GI50 (RXF 393 renal) [µM] | TGI (RXF 393 renal) | GI50 (SF-268 CNS) [µM] | TGI (SF-268 CNS) | GI50 (SF-539 CNS) [µM] | TGI (SF-539 CNS) [µM] | GI50 (UACC-62 melanoma) [µM] | TGI (UACC-62 melanoma)
COc1ccc2c(Nc3ccc(NS(C)(=O)=O)cc3)c3ccccc3nc2c1 | 0.45 | 5.64 µM | 0.292 | 2.64 | 0.3 | 1.99 µM | 0.817 | 2.4 µM | 0.0618 | 1.11 | 3.63 | 28.6 | 0.871 | 2.4 µM | 0.469 | 4.03 µM | 0.525 | 2.28 | 0.383 | 1.93 µM
NNc1cccc(/C=C/c2ccccc2)cc1=O | 2.6 | 8.17 µM | 18.5 | > 100 | 8.32 | > 100 µM | 4.31 | 50.1 µM | 3.61 | 42.3 | 4.36 | > 100 | 46.5 | > 100 µM | 4.27 | > 100 µM | 23 | > 100 | 5.33 | 93.1 µM
COc1cc2c3c(c1)c1cc(OC)c(OC)cc1c[n+]3CC2 | > 100 | 50 µM and > 100 µM |  | 20.6 | 21.3 | 50 µM and > 100 µM | 44.2 | 50 µM and > 100 µM |  | 47.8 | > 100 | > 100 |  | 50 µM and > 100 µM | 0.351 | 3.3 µM and 3.8 µM |  | 50 | 28.7 | 50 µM and > 100 µM
COc1ccc(/C=C/c2nc(NCCCN(C)C)c3ccccc3n2)cc1 | 16.5 | 33.7 µM | 3.22 | 11 | 1.72 | 3.23 µM | 1.81 | 3.65 µM | 2.19 | 4.7 | > 100 | > 100 | 3.68 | 12.1 µM | 1.86 | 4.17 µM | 1.69 | 3.15 | 11.1 | 25.4 µM
O=c1[nH]c(=O)n(C2OC(CO)C(O)C2O)c2c1CCCC2 (stereo unspecified) |  | > 100 µM |  | > 100 |  | > 100 µM |  | > 100 µM |  | > 100 |  | > 100 |  | > 100 µM |  | > 100 µM |  | > 100 |  | > 100 µM
O=[N+]([O-])c1ccc(N/N=C/c2c(O)ccc3ccccc23)nc1 | 0.518 | > 100 µM | 57.8 | > 100 | 1.91 | > 100 µM | 55.2 | > 100 µM | 3.3 | > 100 | 1.82 | > 100 | > 100 | > 100 µM | 4 | > 100 µM | 11.1 | > 100 | 9.82 | > 100 µM
CC(C)c1ccc(C(=O)Nc2sc3c(c2C#N)CCC(=O)C3)cc1 | 0.343 | 1.95 µM | 0.546 | > 100 | 0.337 | > 45 µM | 1.02 | 5.72 µM | 1.14 | > 35.9 | 0.464 | 11.2 | 0.271 | 1.14 µM | 0.432 | > 75 µM | 0.337 | 1.41 | 0.318 | 1.6 µM
C=C1C(=O)OC2CC1C(O)C/C(C)=C/CC/C(C)=C/C(O)CC2C (stereo unspecified) |  | 8.39 µM |  | 11 |  | 7.44 µM |  | 13.4 µM |  | 10.8 |  | 4.8 |  | 2.96 µM |  | 8.66 µM |  | 6.55 |  | 6.1 µM
